Assay results reported in US20070054927A1, “Fungicidal mixtures” (BASF AKTIENGESELLSCHAFT, priority 2003, published 2007).

Test system: Plasmopara viticola
Assay: activity against peronospora of grapevines caused by Plasmopara viticola, protective application
Type: in vivo
Settings: individual active compound, potted vines Müller-Thurgau, untreated control 71% infection
Experimental: The active compounds, separately or jointly, were prepared as a stock solution comprising 0.25% by weight of active compound in acetone or DMSO. 1% by weight of the emulsifier Uniperol® EL (wetting agent having emulsifying and dispersant action based on ethoxylated alkylphenols) was added to this solution, and the mixture was diluted with water to the desired concentration.
Use example—activity against peronospora of gravevines caused by Plasmopara viticola, protective application
Leaves of potted vines of the cultivar “Müller-Thurgau” were sprayed to runoff point with an aqueous suspension having the concentration of active compound stated below. The next day, the undersides of the leaves were inoculated with an aqueous zoospore suspension of Plasmopara viticola. The grapevines were then initially placed in a water-vapor-saturated chamber at 24° C. for 48 hours and then in a greenhouse at 20-30° C. for 5 days. After this period of time, the plants were again placed in a humid chamber for 16 hours to promote sporangiophore eruption. The extent of the development of the disease on the undersides of the leaves was then determined visually.
The visually determined percentages of infected leaf areas were converted into efficacies in % of the untreated control:
The efficacy (E) is calculated as follows using Abbot's formula: E=(1−α/β)·100 • α corresponds to the fungicidal infection of the treated plants in % and • β corresponds to the fungicidal infection of the untreated (control) plants in %
An efficacy of 0 means that the infection level of the treated plants corresponds to that of the untreated control plants; an efficacy of 100 means that the treated plants were not infected.
The expected efficacies of mixtures of active compounds were determined using Colby's formula (Colby, S. R. “Calculating synergistic and antagonistic responses of herbicide combinations”, Weeds, 15, 20-22, 1967) and compared with the observed efficacies.
Colby's formula: E=x+y−x·y/100 • E expected efficacy, expressed in % of the untreated control, when using the mixture of the active compounds A and B at the concentrations a and b • x efficacy, expressed in % of the untreated control, when using the active compound A at the concentration a • y efficacy, expressed in % of the untreated control, when using the active compound B at the concentration b

Structure (SMILES)	Efficacy in % of the untreated control (4 ppm in the spray liquor)	Efficacy in % of the untreated control (16 ppm in the spray liquor)
C[C@H](Nc1c(-c2c(F)cc(F)cc2F)c(Cl)nc2ncnn12)C(F)(F)F [comparative compound B]	15%	29%
CC1CCN(c2c(-c3c(F)cc(F)cc3F)c(Cl)nc3ncnn23)CC1 [I, 5-chloro-7-(4-methylpiperidin-1-yl)-6-(2,4,6-trifluorophenyl)-[1,2,4]triazolo[1,5-a]pyrimidine]	1%	44%
CC1CCN(c2c(-c3c(F)cccc3Cl)c(Cl)nc3ncnn23)CC1 [comparative compound A]	0%	15%
CC1(C)CCC(Cc2ccc(Cl)cc2)C1(O)Cn1cncn1 (centres unmarked) [II (metconazole), 5-(4-chlorobenzyl)-2,2-dimethyl-1-[1,2,4]triazol-1-ylmethylcyclopentanol]	1%	1%
